According to patent publication US20240365781A1, “SYNERGISTICALLY EFFECTIVE HERBICIDE COMPOSITION COMPRISING PELARGONIC ACID AND FLAZASULFURON” (Belchim Crop Protection NV, priority 2017, published 2024):

How the values were obtained:
Assay in all cases: post-emergence field trial under rows of apple trees, 150-200 L water/ha (Examples 10-12)
Format in all cases: in vivo
[1] = test system: Capsella bursa-pastoris
Method: (§1) Herbicidal activity was determined by performing a post-emergence test. […] The corresponding mixture was in the form of a spray solution. Besides, spray solutions of individual compositions comprising pelargonic acid or flazasulfuron were used.
(§2) The spray solution was applied on plants of unwanted vegetation present on fields where perennial crops were grown.
(§3) After 5 to 88 days after application of the spray solution, the degree of damage to the unwanted vegetation is rated in % of plants of unwanted vegetation that were killed. Tests were performed on test fields (field trials).

[2] = test system: Senecio vulgaris
Method: as §1, §2, §3

[3] = test system: Sonchus oleracea
Method: as §1, §2, §3

[4] = test system: Taraxacum officinalis
Method: as §1, §2, §3

COc1cc(OC)nc(NC(=O)NS(=O)(=O)c2ncccc2C(F)(F)F)n1 [Flazasulfuron, 1-(4,6-dimethoxypyrimidin-2-yl)-3-(3-trifluoromethyl-2-pyridylsulfonyl)urea]
herbicidal effect (%) ([1]; Capsella bursa-pastoris/6 d, 20 g of active compound/ha): 16%
herbicidal effect (%) ([1]; Capsella bursa-pastoris/16 d, 20 g of active compound/ha): 45%
herbicidal effect (%) ([1]; Capsella bursa-pastoris/30 d, 20 g of active compound/ha): 55%
herbicidal effect (%) ([1]; Capsella bursa-pastoris/57 d, 20 g of active compound/ha): 58%
herbicidal effect (%) ([2]; Senecio vulgaris/6 d, 20 g of active compound/ha): 4%
herbicidal effect (%) ([2]; Senecio vulgaris/28 d, 20 g of active compound/ha): 13%
herbicidal effect (%) ([2]; Senecio vulgaris/58 d, 20 g of active compound/ha): 18%
herbicidal effect (%) ([3]; Sonchus oleracea/6 d, 20 g of active compound/ha): 18%
herbicidal effect (%) ([3]; Sonchus oleracea/16 d, 20 g of active compound/ha): 28%
herbicidal effect (%) ([3]; Sonchus oleracea/30 d, 20 g of active compound/ha): 43%
herbicidal effect (%) ([3]; Sonchus oleracea/57 d, 20 g of active compound/ha): 23%
herbicidal effect (%) ([3]; Sonchus oleracea/78 d, 20 g of active compound/ha): 45%
herbicidal effect (%) ([4]; Taraxacum officinalis/5 d, 20 g of active compound/ha): 0%
herbicidal effect (%) ([4]; Taraxacum officinalis/18 d, 20 g of active compound/ha): 71%
herbicidal effect (%) ([4]; Taraxacum officinalis/32 d, 20 g of active compound/ha): 83%
herbicidal effect (%) ([4]; Taraxacum officinalis/61 d, 20 g of active compound/ha): 72%
herbicidal effect (%) ([4]; Taraxacum officinalis/88 d, 20 g of active compound/ha): 71%

CCCCCCCCC(=O)O [Pelargonic acid, nonanoic acid]
herbicidal effect (%) ([1]; Capsella bursa-pastoris/6 d, 5440 g of active compound/ha): 18%
herbicidal effect (%) ([1]; Capsella bursa-pastoris/6 d, 8160 g of active compound/ha): 45%
herbicidal effect (%) ([1]; Capsella bursa-pastoris/6 d, 10880 g of active compound/ha): 45%
herbicidal effect (%) ([1]; Capsella bursa-pastoris/16 d, 5440 g of active compound/ha): 53%
herbicidal effect (%) ([1]; Capsella bursa-pastoris/16 d, 8160 g of active compound/ha): 40%
herbicidal effect (%) ([1]; Capsella bursa-pastoris/16 d, 10880 g of active compound/ha): 55%
herbicidal effect (%) ([1]; Capsella bursa-pastoris/30 d, 5440 g of active compound/ha): 55%
herbicidal effect (%) ([1]; Capsella bursa-pastoris/30 d, 8160 g of active compound/ha): 53%
herbicidal effect (%) ([1]; Capsella bursa-pastoris/30 d, 10880 g of active compound/ha): 60%
herbicidal effect (%) ([1]; Capsella bursa-pastoris/57 d, 5440 g of active compound/ha): 0%
herbicidal effect (%) ([1]; Capsella bursa-pastoris/57 d, 8160 g of active compound/ha): 0%
herbicidal effect (%) ([1]; Capsella bursa-pastoris/57 d, 10880 g of active compound/ha): 0%
herbicidal effect (%) ([2]; Senecio vulgaris/6 d, 5440 g of active compound/ha): 26%
herbicidal effect (%) ([2]; Senecio vulgaris/6 d, 8160 g of active compound/ha): 29%
herbicidal effect (%) ([2]; Senecio vulgaris/6 d, 10880 g of active compound/ha): 29%
herbicidal effect (%) ([2]; Senecio vulgaris/28 d, 5440 g of active compound/ha): 9%
herbicidal effect (%) ([2]; Senecio vulgaris/28 d, 10880 g of active compound/ha): 11%
herbicidal effect (%) ([2]; Senecio vulgaris/58 d, 10880 g of active compound/ha): 33%
herbicidal effect (%) ([3]; Sonchus oleracea/6 d, 5440 g of active compound/ha): 25%
herbicidal effect (%) ([3]; Sonchus oleracea/6 d, 8160 g of active compound/ha): 50%
herbicidal effect (%) ([3]; Sonchus oleracea/6 d, 10880 g of active compound/ha): 55%
herbicidal effect (%) ([3]; Sonchus oleracea/16 d, 5440 g of active compound/ha): 48%
herbicidal effect (%) ([3]; Sonchus oleracea/16 d, 8160 g of active compound/ha): 43%
herbicidal effect (%) ([3]; Sonchus oleracea/16 d, 10880 g of active compound/ha): 45%
herbicidal effect (%) ([3]; Sonchus oleracea/30 d, 5440 g of active compound/ha): 40%
herbicidal effect (%) ([3]; Sonchus oleracea/30 d, 8160 g of active compound/ha): 48%
herbicidal effect (%) ([3]; Sonchus oleracea/30 d, 10880 g of active compound/ha): 53%
herbicidal effect (%) ([3]; Sonchus oleracea/57 d, 5440 g of active compound/ha): 0%
herbicidal effect (%) ([3]; Sonchus oleracea/57 d, 8160 g of active compound/ha): 0%
herbicidal effect (%) ([3]; Sonchus oleracea/57 d, 10880 g of active compound/ha): 0%
herbicidal effect (%) ([3]; Sonchus oleracea/78 d, 5440 g of active compound/ha): 0%
herbicidal effect (%) ([3]; Sonchus oleracea/78 d, 8160 g of active compound/ha): 0%
herbicidal effect (%) ([3]; Sonchus oleracea/78 d, 10880 g of active compound/ha): 0%
herbicidal effect (%) ([4]; Taraxacum officinalis/5 d, 5440 g of active compound/ha): 11%
herbicidal effect (%) ([4]; Taraxacum officinalis/18 d, 5440 g of active compound/ha): 0%
herbicidal effect (%) ([4]; Taraxacum officinalis/18 d, 8160 g of active compound/ha): 0%
herbicidal effect (%) ([4]; Taraxacum officinalis/18 d, 10880 g of active compound/ha): 9%
herbicidal effect (%) ([4]; Taraxacum officinalis/32 d, 5440 g of active compound/ha): 0%
herbicidal effect (%) ([4]; Taraxacum officinalis/32 d, 8160 g of active compound/ha): 0%
herbicidal effect (%) ([4]; Taraxacum officinalis/32 d, 10880 g of active compound/ha): 0%
herbicidal effect (%) ([4]; Taraxacum officinalis/61 d, 5440 g of active compound/ha): 0%
herbicidal effect (%) ([4]; Taraxacum officinalis/61 d, 8160 g of active compound/ha): 0%
herbicidal effect (%) ([4]; Taraxacum officinalis/61 d, 10880 g of active compound/ha): 0%
herbicidal effect (%) ([4]; Taraxacum officinalis/88 d, 5440 g of active compound/ha): 0%
herbicidal effect (%) ([4]; Taraxacum officinalis/88 d, 8160 g of active compound/ha): 0%
herbicidal effect (%) ([4]; Taraxacum officinalis/88 d, 10880 g of active compound/ha): 0%
